Counter-ions that a name gives are not always drawn.
Tests used:
[1] = Diameter and PDI from DLS measurements of mRNA nanoparticles with lipid amines; type: physicochemical
Outline: (§1)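 Ionizable lipid nanoparticles (IL1:DSPC:cholesterol:PEG-DMG-2K) formed by vortex mixing at pH 4, loaded with luciferase or CFTR mRNA at N:P 4.93, neutralized with TRIS pH 8.12, then modified with lipid amine SA50 at pH 7.5. Particle diameter and PDI read by DLS; mRNA encapsulation by Ribogreen assay.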

HeLa cells [2] = assay: CFTR Protein Expression Assay in HeLa Cells; type: cell-based, Human; details: LNPs encapsulating CFTR mRNA, N=4 wells; 5 h serum-free then 24 h; immunofluorescence vs PBS control
Outline: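 HeLa cells dosed with CFTR mRNA LNPs (70 mM NaCl final buffer matrix) in serum-free MEM for 5 h, then complete MEM for 24 h. Fixed cells immunostained with anti-CFTR monoclonal and Alexa 488 secondary, imaged confocally; CFTR intensity per cell expressed as fold-change versus PBS buffer control, N=4 wells.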

HeLa cells [3] = assay: Luciferase Protein Expression Assay in HeLa Cells; type: cell-based, Human; details: LNPs encapsulating Luciferase mRNA, 25 ng per well, N=4 wells; 5 h serum-free then 24 h; ONE-Glo
Outline: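 HeLa cells received LNPs carrying luciferase mRNA (25 ng per well) or PBS in serum-free MEM for 5 h, then complete MEM for a further 24 h. Luciferase then read by ONE-Glo luminescence after lysis and reported as average RLU of 4 replicate wells.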

[4] = Encapsulation of mRNA nanoparticles with lipid amines using Ribogreen assay; type: physicochemical
Outline: as §1

[5] = CFTR mRNA nanoparticle with lipid amine
[6] = Luciferase mRNA nanoparticle modified with lipid amine

Compound | Diameter (nm) [1, 5] | PDI [1, 5] | Diameter (nm) [1, 6] | PDI [1, 6] | Average fold-change in CFTR signal intensity per cell compared to buffer control ± standard deviation (HeLa cells [2]) | Average Relative Light Units ± Standard Deviation (HeLa cells [3]) | % Encapsulation (Ribogreen) [4, 5] | % Encapsulation (Ribogreen) [4, 6]
CC[C@H](CC[C@@H](C)[C@H]1CC[C@H]2[C@@H]3CC=C4C[C@@H](OC(=O)CCC(=O)N(CCCCCCCC(C)N)CCC(C)N)CC[C@]4(C)[C@H]3CC[C@]12C)C(C)C (stereo partly drawn) [SA163, (3S,8S,9S,10R,13R,14S,17R)-17-((2R,5R)-5-ethyl-6-methylheptan-2-yl)-10,13-dimethyl-2,3,4,7,8,9,10,11,12,13,14,15,16,17-tetradecahydro-1H-cyclopenta[a]phenanthren-3-yl 4-((3-aminobutyl)(8-aminononyl)amino)-4-oxobutanoate dihydrochloride] | 70.6 nm | 0.09 | 71 nm | 0.17 | 11.3 ± 0.5 fold-change | 30168 ± 7878.9 Relative Light Units | 100% | 99.1%
CC(C)CCC[C@@H](C)[C@H]1CC[C@H]2[C@@H]3CC=C4C[C@@H](OC(=O)CCC(=O)N(CCCCCCCC(C)(C)N)CCC(C)(C)N)CC[C@]4(C)[C@H]3CC[C@]12C [SA164, (3S,8S,9S,10R,13R,14S,17R)-10,13-dimethyl-17-((R)-6-methylheptan-2-yl)-2,3,4,7,8,9,10,11,12,13,14,15,16,17-tetradecahydro-1H-cyclopenta[a]phenanthren-3-yl 4-((3-amino-3-methylbutyl)(8-amino-8-methylnonyl)amino)-4-oxobutanoate dihydrochloride] | 72.5 nm | 0.14 | 73 nm | 0.14 | 16.2 ± 0.7 fold-change | 17129.2 ± 2374.1 Relative Light Units | 99.2% | 98.0%
CC[C@H](CC[C@@H](C)[C@H]1CC[C@H]2[C@@H]3CC=C4C[C@@H](OC(=O)CCC(=O)N(CCCCCCCC(C)(C)N)CCC(C)(C)N)CC[C@]4(C)[C@H]3CC[C@]12C)C(C)C [SA165, (3S,8S,9S,10R,13R,14S,17R)-17-((2R,5R)-5-ethyl-6-methylheptan-2-yl)-10,13-dimethyl-2,3,4,7,8,9,10,11,12,13,14,15,16,17-tetradecahydro-1H-cyclopenta[a]phenanthren-3-yl 4-((3-amino-3-methylbutyl)(8-amino-8-methylnonyl)amino)-4-oxobutanoate dihydrochloride] | 69.8 nm | 0.12 | 72 nm | 0.13 | 14.0 ± 0.5 fold-change | 33585.6 ± 7766.5 Relative Light Units | 98.8% | 98.8%
CC(C)CCC[C@@H](C)[C@H]1CC[C@H]2[C@@H]3CC=C4C[C@@H](OC(=O)CCC(=O)N(CCCC(C)(C)N)CCC(C)(C)N)CC[C@]4(C)[C@H]3CC[C@]12C [SA166, (3S,8S,9S,10R,13R,14S,17R)-10,13-dimethyl-17-((R)-6-methylheptan-2-yl)-2,3,4,7,8,9,10,11,12,13,14,15,16,17-tetradecahydro-1H-cyclopenta[a]phenanthren-3-yl 4-((3-amino-3-methylbutyl)(4-amino-4-methylpentyl)amino)-4-oxobutanoate dihydrochloride] | 76.1 nm | 0.16 | 75 nm | 0.14 | 15.6 ± 1.3 fold-change | 33377.3 ± 8879.8 Relative Light Units | 99.5% | 99.2%
CC[C@H](CC[C@@H](C)[C@H]1CC[C@H]2[C@@H]3CC=C4C[C@@H](OC(=O)CCC(=O)N(CCCC(C)(C)N)CCC(C)(C)N)CC[C@]4(C)[C@H]3CC[C@]12C)C(C)C [SA167, (3S,8S,9S,10R,13R,14S,17R)-17-((2R,5R)-5-ethyl-6-methylheptan-2-yl)-10,13-dimethyl-2,3,4,7,8,9,10,11,12,13,14,15,16,17-tetradecahydro-1H-cyclopenta[a]phenanthren-3-yl 4-((3-amino-3-methylbutyl)(4-amino-4-methylpentyl)amino)-4-oxobutanoate dihydrochloride] | 75.1 nm | 0.16 | 75 nm | 0.15 | 14.9 ± 1.4 fold-change | 38742.4 ± 6037.5 Relative Light Units | 100% | 98.7%
CC[C@H](CC[C@@H](C)[C@H]1CC[C@H]2[C@@H]3CC=C4C[C@@H](OC(=O)CCC(=O)N(CCC(C)N)CCC(C)N)CC[C@]4(C)[C@H]3CC[C@]12C)C(C)C (stereo partly drawn) [SA168, (3S,8S,9S,10R,13R,14S,17R)-17-((2R,5R)-5-ethyl-6-methylheptan-2-yl)-10,13-dimethyl-2,3,4,7,8,9,10,11,12,13,14,15,16,17-tetradecahydro-1H-cyclopenta[a]phenanthren-3-yl 4-(bis(3-aminobutyl)amino)-4-oxobutanoate dihydrochloride] | 76.1 nm | 0.15 | 79 nm | 0.16 | 14.8 ± 0.7 fold-change | 35639.5 ± 6688.9 Relative Light Units | 99.3% | 99.3%
CC(C)CCC[C@@H](C)[C@H]1CC[C@H]2[C@@H]3CC=C4C[C@@H](OC(=O)CCC(=O)N(CCC(C)(C)N)CCC(C)(C)N)CC[C@]4(C)[C@H]3CC[C@]12C [SA169, (3S,8S,9S,10R,13R,14S,17R)-10,13-dimethyl-17-((R)-6-methylheptan-2-yl)-2,3,4,7,8,9,10,11,12,13,14,15,16,17-tetradecahydro-1H-cyclopenta[a]phenanthren-3-yl 4-(bis(3-amino-3-methylbutyl)amino)-4-oxobutanoate dihydrochloride] | 73.0 nm | 0.14 | 77 nm | 0.20 | 19.7 ± 1.6 fold-change | 28034.9 ± 4050.3 Relative Light Units | 99.2% | 99.4%
CC[C@H](CC[C@@H](C)[C@H]1CC[C@H]2[C@@H]3CC=C4C[C@@H](OC(=O)CCC(=O)N(CCC(C)(C)N)CCC(C)(C)N)CC[C@]4(C)[C@H]3CC[C@]12C)C(C)C [SA170, (3S,8S,9S,10R,13R,14S,17R)-17-((2R,5R)-5-ethyl-6-methylheptan-2-yl)-10,13-dimethyl-2,3,4,7,8,9,10,11,12,13,14,15,16,17-tetradecahydro-1H-cyclopenta[a]phenanthren-3-yl 4-(bis(3-amino-3-methylbutyl)amino)-4-oxobutanoate dihydrochloride] | 74.8 nm | 0.15 | 75 nm | 0.21 | 19.0 ± 1.7 fold-change | 23687.3 ± 3865 Relative Light Units | 99.2% | 99.6%
CC(C)CCC[C@@H](C)[C@H]1CC[C@H]2[C@@H]3CC=C4C[C@@H](SSCCC(=O)N(CCCCNCCC(C)N)CCC(C)N)CC[C@]4(C)[C@H]3CC[C@]12C (stereo partly drawn) [SA171, N-(3-aminobutyl)-N-(4-((3-aminobutyl)amino)butyl)-3-(((3S,8S,9S,10R,13R,14S,17R)-10,13-dimethyl-17-((R)-6-methylheptan-2-yl)-2,3,4,7,8,9,10,11,12,13,14,15,16,17-tetradecahydro-1H-cyclopenta[a]phenanthren-3-yl)disulfaneyl)propanamide trihydrochloride] | 71.3 nm | 0.11 | 73 nm | 0.23 | 18.9 ± 1.9 fold-change | 22232.4 ± 9084.1 Relative Light Units | 99.4% | 99.2%

From US20260109732A1, “LIPID AMINES” (ModernaTX, Inc., priority 2021, published 2026)
